Results: ChEMBL document CHEMBL1154549, “Three new triterpenoids from Peganum nigellastrum” (J Nat Prod, 2000)

Target: DNA topoisomerase 2-alpha (Homo sapiens, UniProt P11388)
Assay: Inhibition of human topoisomerase 2

Sequence of DNA topoisomerase 2-alpha (P11388 whole entry): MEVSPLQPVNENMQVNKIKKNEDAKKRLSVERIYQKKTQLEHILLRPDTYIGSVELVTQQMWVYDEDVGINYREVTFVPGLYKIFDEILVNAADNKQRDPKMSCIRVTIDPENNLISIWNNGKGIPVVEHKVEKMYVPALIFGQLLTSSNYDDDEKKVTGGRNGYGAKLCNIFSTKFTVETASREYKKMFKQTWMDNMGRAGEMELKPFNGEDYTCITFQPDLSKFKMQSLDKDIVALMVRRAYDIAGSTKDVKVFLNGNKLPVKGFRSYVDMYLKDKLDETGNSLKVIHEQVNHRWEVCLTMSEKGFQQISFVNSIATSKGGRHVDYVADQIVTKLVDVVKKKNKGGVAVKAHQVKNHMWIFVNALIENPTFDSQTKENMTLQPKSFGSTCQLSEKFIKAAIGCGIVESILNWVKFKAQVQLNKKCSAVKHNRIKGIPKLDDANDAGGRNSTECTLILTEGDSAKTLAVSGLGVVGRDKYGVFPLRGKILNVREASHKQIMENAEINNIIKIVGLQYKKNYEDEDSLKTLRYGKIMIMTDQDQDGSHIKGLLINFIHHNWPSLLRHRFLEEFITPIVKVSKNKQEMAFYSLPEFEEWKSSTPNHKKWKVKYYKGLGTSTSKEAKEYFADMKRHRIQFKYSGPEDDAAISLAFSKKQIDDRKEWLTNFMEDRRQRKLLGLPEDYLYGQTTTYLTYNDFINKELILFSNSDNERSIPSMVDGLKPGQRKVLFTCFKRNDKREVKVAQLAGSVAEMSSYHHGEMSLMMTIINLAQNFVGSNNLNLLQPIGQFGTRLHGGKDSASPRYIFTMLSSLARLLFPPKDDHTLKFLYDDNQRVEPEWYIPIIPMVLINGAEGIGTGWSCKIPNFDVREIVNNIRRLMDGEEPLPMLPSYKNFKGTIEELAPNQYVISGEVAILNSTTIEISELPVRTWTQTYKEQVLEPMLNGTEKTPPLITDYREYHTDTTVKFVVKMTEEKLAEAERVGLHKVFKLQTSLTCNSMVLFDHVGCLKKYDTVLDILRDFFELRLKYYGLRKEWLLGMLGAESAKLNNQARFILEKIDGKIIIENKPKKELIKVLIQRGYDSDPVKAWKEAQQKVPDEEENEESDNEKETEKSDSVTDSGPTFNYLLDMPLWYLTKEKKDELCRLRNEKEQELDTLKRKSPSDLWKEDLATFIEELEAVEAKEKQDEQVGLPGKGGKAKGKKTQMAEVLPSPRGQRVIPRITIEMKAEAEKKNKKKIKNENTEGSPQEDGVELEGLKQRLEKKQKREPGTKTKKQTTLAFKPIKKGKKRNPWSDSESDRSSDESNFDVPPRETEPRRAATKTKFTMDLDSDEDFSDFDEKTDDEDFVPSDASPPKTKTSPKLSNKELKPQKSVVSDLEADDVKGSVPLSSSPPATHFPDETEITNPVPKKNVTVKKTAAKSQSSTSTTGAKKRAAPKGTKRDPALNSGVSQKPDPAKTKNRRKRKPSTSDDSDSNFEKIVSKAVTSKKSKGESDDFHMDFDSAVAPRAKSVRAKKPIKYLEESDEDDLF

| Compound | IC50 [µM] |
| --- | --- |
| C=C(C)[C@@H]1CC[C@]2(C(=O)OC)CC[C@]3(CO)[C@H](CC[C@@H]4[C@@]5(C)CC[C@@H](O)C(C)(C)[C@@H]5CC[C@]43C)[C@@H]12 | 8.9 |
| C[C@H]([C@H](C)N1CC(=O)NC(=O)C1)N1CC(=O)NC(=O)C1 [ICRF-193] | 13.9 |
